In PubChem BioAssay (NCI) one finds TGI and GI50 data, which are given here for eight molecules.

Test systems include MOLT-4 leukemia; CCRF-CEM leukemia; SK-MEL-5 melanoma; NCI/ADR-RES ovarian; NCI-H23 lung; HCT-116 colon; UACC-62 melanoma; RXF 393 renal; NCI-H226 lung; SNB-75 CNS; SK-MEL-28 melanoma; UACC-257 melanoma; DU-145 prostate; IGROV1 ovarian; A498 renal; HCT-15 colon; HCC-2998 colon; UO-31 renal.
Common to all, as to experiment: growth of human tumour cells (NCI), 48 h

Values joined by “and” are separate entries in the source; they are usually repeats but may differ in a detail not shown here. Identical values can stand only once.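 Where inhibition never reached the appropriate level, the endpoint shown equals the highest concentration tested. Otherwise, values were interpolated linearly from a five-concentration, 48-hour dose response in 96-well plates. GI50 is the concentration that inhibits growth by half. At the TGI there is no net growth.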

For the molecule `Fc1ccc2c3c([nH]c2c1)CCNC3`, the TGI in the assay on MOLT-4 leukemia, in the assay on CCRF-CEM leukemia, in the assay on SK-MEL-5 melanoma, in the assay on NCI/ADR-RES ovarian, with NCI-H23 lung and in the assay with HCT-116 colon was more than 100 µM in each case. In addition, the TGI with UACC-62 melanoma, in the assay with RXF 393 renal, with NCI-H226 lung, in the assay with SNB-75 CNS, in the assay on SK-MEL-28 melanoma and in the assay with UACC-257 melanoma was more than 100 µM each time. The TGI was more than 100 µM in the assay with DU-145 prostate; more than 100 µM in the assay on IGROV1 ovarian; 65.9 µM in the assay with A498 renal; more than 100 µM in the assay with HCT-15 colon; more than 100 µM in the assay on HCC-2998 colon; 99.7 µM in the assay on UO-31 renal.
With `O=C(c1cccs1)N(Cc1cccnc1)C(=S)N(Cc1cccnc1)C(=O)c1cccs1`, the TGI in the assay with MOLT-4 leukemia, in the assay with CCRF-CEM leukemia, with SK-MEL-5 melanoma, in the assay on NCI/ADR-RES ovarian, in the assay with NCI-H23 lung and with HCT-116 colon was more than 100 µM each time. The TGI in the assay on UACC-62 melanoma, in the assay on RXF 393 renal, in the assay on NCI-H226 lung, in the assay with SNB-75 CNS, with SK-MEL-28 melanoma and in the assay with UACC-257 melanoma was more than 100 µM in each case. In addition, the TGI is more than 100 µM with DU-145 prostate; 97.4 µM in the assay with A498 renal; more than 100 µM in the assay on HCT-15 colon; more than 100 µM with HCC-2998 colon; more than 100 µM in the assay on UO-31 renal.
As for `Cc1ccc(/C=N/NS(=O)(=O)c2ccc(/C=C3\NC(=O)NC3=O)cc2)cc1`, the TGI with MOLT-4 leukemia, in the assay with CCRF-CEM leukemia, in the assay on SK-MEL-5 melanoma, in the assay with NCI/ADR-RES ovarian, in the assay on NCI-H23 lung and with HCT-116 colon was more than 100 µM throughout. Moreover, the TGI in the assay on UACC-62 melanoma is more than 100 µM; in the assay on RXF 393 renal, more than 100 µM; in the assay on NCI-H226 lung, more than 100 µM; in the assay with SNB-75 CNS it was 47.7 µM; in the assay with SK-MEL-28 melanoma it was more than 100 µM; in the assay with UACC-257 melanoma, more than 100 µM. The TGI in the assay with DU-145 prostate, in the assay on IGROV1 ovarian, with A498 renal, with HCT-15 colon, with HCC-2998 colon and with UO-31 renal was more than 100 µM in each case.
On to `CN(C)CCCN1c2ccccc2CCc2cc([N+](=O)[O-])ccc21`, for which the TGI in the assay on MOLT-4 leukemia was > 100 µM and 35.9 µM; with CCRF-CEM leukemia, > 100 µM and 27 µM; in the assay on SK-MEL-5 melanoma, 31.2 µM and 25.7 µM; with NCI/ADR-RES ovarian, 82 µM and 39.8 µM; in the assay on NCI-H23 lung, 54.1 µM and 36.7 µM; with HCT-116 colon it was 41 µM and 29.7 µM. Moreover, the TGI is 29.2 µM and 27.5 µM in the assay on UACC-62 melanoma; 32.8 µM and 26 µM in the assay on RXF 393 renal; 68 µM and 32.6 µM in the assay with NCI-H226 lung; 26.4 µM in the assay on SNB-75 CNS; 80.9 µM and 28.2 µM in the assay on SK-MEL-28 melanoma; 38 µM and 29.5 µM in the assay with UACC-257 melanoma. Further, the TGI in the assay on DU-145 prostate was 58.9 µM and 34.6 µM; with IGROV1 ovarian it was 53.2 µM and 29.8 µM; in the assay with A498 renal it was 61.4 µM and 25.8 µM; in the assay on HCT-15 colon, 83.3 µM and 37.4 µM; in the assay on HCC-2998 colon, 34.1 µM and 25.2 µM; in the assay with UO-31 renal, 70.8 µM and 28.7 µM. Also, the GI50 is 43.8 µM and 10.7 µM in the assay with CCRF-CEM leukemia; 28.2 µM and 13.9 µM in the assay with SK-MEL-28 melanoma.
Turning to `CCOC(=O)c1cc(C#N)[nH]c1-c1ccsc1`, the TGI was 53.1 µM in the assay on MOLT-4 leukemia; 69.3 µM in the assay with CCRF-CEM leukemia; more than 100 µM with SK-MEL-5 melanoma; 94.9 µM in the assay with NCI/ADR-RES ovarian; more than 100 µM in the assay with NCI-H23 lung; more than 100 µM in the assay on HCT-116 colon. Moreover, the TGI in the assay on UACC-62 melanoma was more than 100 µM; with RXF 393 renal it was 51.3 µM; in the assay with NCI-H226 lung, more than 100 µM; in the assay with SNB-75 CNS it was 97.4 µM; in the assay with SK-MEL-28 melanoma it was more than 100 µM; in the assay with UACC-257 melanoma it was more than 100 µM. Also, the TGI is 58.8 µM in the assay with DU-145 prostate; more than 100 µM with IGROV1 ovarian; more than 100 µM in the assay with A498 renal; more than 100 µM in the assay with HCT-15 colon; more than 100 µM in the assay with HCC-2998 colon.
Take `c1cc(C[S+]2CCCC2)sc1C[S+]1CCCC1`: the TGI in the assay on MOLT-4 leukemia, in the assay on CCRF-CEM leukemia, with SK-MEL-5 melanoma, in the assay on NCI/ADR-RES ovarian, in the assay with NCI-H23 lung and in the assay on HCT-116 colon was more than 100 µM throughout. For the same molecule, the TGI in the assay on UACC-62 melanoma, in the assay with RXF 393 renal, with NCI-H226 lung, with SNB-75 CNS, in the assay on UACC-257 melanoma and in the assay with DU-145 prostate was more than 100 µM throughout. In addition, the TGI in the assay on IGROV1 ovarian, in the assay with A498 renal, in the assay on HCT-15 colon, in the assay with HCC-2998 colon and in the assay on UO-31 renal was more than 100 µM throughout.
On to `COC(=O)[C@H](COC(=O)/C=C/c1ccc(OC(C)=O)c(OC(C)=O)c1)NC(=O)/C=C/c1ccc(OC(C)=O)c(OC(C)=O)c1`, for which the TGI with MOLT-4 leukemia is more than 100 µM; in the assay with CCRF-CEM leukemia, more than 100 µM; in the assay with SK-MEL-5 melanoma it was 31.6 µM; in the assay on NCI/ADR-RES ovarian, more than 100 µM; in the assay on NCI-H23 lung, 47.6 µM; in the assay with HCT-116 colon, 36.2 µM. Further, the TGI is 31.9 µM with UACC-62 melanoma; more than 100 µM in the assay with RXF 393 renal; 56.7 µM in the assay with NCI-H226 lung; 30.1 µM in the assay with SNB-75 CNS; 94 µM in the assay on SK-MEL-28 melanoma; 42.1 µM in the assay with UACC-257 melanoma. Besides, the TGI in the assay with DU-145 prostate was 29.4 µM; in the assay with IGROV1 ovarian it was 43 µM; in the assay with A498 renal it was more than 100 µM; in the assay with HCT-15 colon it was 70.6 µM; in the assay on HCC-2998 colon, 36.6 µM.
Turning to `O=C1COCCN1C(=O)c1ccccc1Cl`, the TGI in the assay on CCRF-CEM leukemia, in the assay on SK-MEL-5 melanoma, in the assay on NCI/ADR-RES ovarian, in the assay with NCI-H23 lung, in the assay on HCT-116 colon and with UACC-62 melanoma was more than 100 µM in each case. The TGI in the assay on RXF 393 renal, in the assay with NCI-H226 lung, with SNB-75 CNS, with SK-MEL-28 melanoma, in the assay on UACC-257 melanoma and with DU-145 prostate was more than 100 µM each time. The TGI in the assay on IGROV1 ovarian, with A498 renal, with HCT-15 colon, with HCC-2998 colon and in the assay with UO-31 renal was more than 100 µM each time.
